In ChEMBL document CHEMBL3784940 (Bioorg Med Chem Lett, 2016):
Activity calls are given as the source filed them. The calls are words filed in the database; no cut-off is given here.

Key:
[1] = Inhibition of Hh signaling pathway in mouse TM3 cells assessed as downregulation of Gli1 gene expression after 48 hrs by luciferase reporter gene assay; type: cell-based; details: TM3, 48 h
[2] = Inhibition of Hh signaling pathway in Sufu deficient MEF cells assessed as downregulation of Gli1 mRNA expression at 10 uM after 24 hrs by qRT-PCR analysis; type: cell-based; details: Mus musculus
[3] = Cytotoxicity against mouse TM3 cells assessed as cell viability after 48 hrs by Cell Titer Glo assay; type: cell-based; details: read-out: LD50
[4] = Inhibition of Hh signaling pathway in Sufu deficient MEF cells assessed as downregulation of Ptch1 mRNA expression at 10 uM after 24 hrs by qRT-PCR analysis; type: cell-based; details: Mus musculus
[5] = molecular target: 3',5'-cyclic-AMP phosphodiesterase 4D (Homo sapiens, UniProt Q08499); experiment: Inhibition of PDE4D (unknown origin) preincubated for 5 mins followed by cAMP addition measured after 15 mins by PDE-Glo phosphodiesterase assay
[6] = molecular target: Protein smoothened (Homo sapiens) (UniProt Q99835); experiment: Displacement of BODIPY-cyc from SMO receptor (unknown origin) transfected in HEK293T cells at 10 uM after 16 hrs by laser-scanning confocal microscopic analysis; type: cell-based; details: HEK-293T
[7] = Inhibition of luciferase (unknown origin) expressed in BMP-responsive element stable reporter cells; type: cell-based
[8] = molecular target: Protein smoothened (Homo sapiens) (UniProt Q99835); experiment: Displacement of BODIPY-cyc from SMO receptor (unknown origin) transfected in HEK293T cells at 200 nM after 16 hrs by laser-scanning confocal microscopic analysis; type: cell-based; details: HEK-293T
[9] = Inhibition of Hh signaling pathway in Sufu deficient MEF cells assessed as downregulation of Ptch1 mRNA expression at 0.1 uM after 24 hrs by qRT-PCR analysis; type: cell-based; details: Mus musculus
[10] = Inhibition of Hh signaling pathway in Sufu deficient MEF cells assessed as downregulation of Gli1 mRNA expression at 0.1 uM after 24 hrs by qRT-PCR analysis; type: cell-based; details: Mus musculus
[11] = molecular target: Protein smoothened (Homo sapiens) (UniProt Q99835); experiment: Displacement of BODIPY-cyc from SMO receptor (unknown origin) transfected in HEK293T cells at 1 uM after 16 hrs by laser-scanning confocal microscopic analysis; type: cell-based; details: HEK-293T
[12] = Inhibition of Hh signaling pathway in Shh-LIGHT2 incorporated mouse NIH 3T3 cells assessed as downregulation of Gli1 gene expression by luciferase reporter gene assay; type: cell-based; details: NIH3T3

Sequence of Protein smoothened (Homo sapiens) (Q99835 whole entry): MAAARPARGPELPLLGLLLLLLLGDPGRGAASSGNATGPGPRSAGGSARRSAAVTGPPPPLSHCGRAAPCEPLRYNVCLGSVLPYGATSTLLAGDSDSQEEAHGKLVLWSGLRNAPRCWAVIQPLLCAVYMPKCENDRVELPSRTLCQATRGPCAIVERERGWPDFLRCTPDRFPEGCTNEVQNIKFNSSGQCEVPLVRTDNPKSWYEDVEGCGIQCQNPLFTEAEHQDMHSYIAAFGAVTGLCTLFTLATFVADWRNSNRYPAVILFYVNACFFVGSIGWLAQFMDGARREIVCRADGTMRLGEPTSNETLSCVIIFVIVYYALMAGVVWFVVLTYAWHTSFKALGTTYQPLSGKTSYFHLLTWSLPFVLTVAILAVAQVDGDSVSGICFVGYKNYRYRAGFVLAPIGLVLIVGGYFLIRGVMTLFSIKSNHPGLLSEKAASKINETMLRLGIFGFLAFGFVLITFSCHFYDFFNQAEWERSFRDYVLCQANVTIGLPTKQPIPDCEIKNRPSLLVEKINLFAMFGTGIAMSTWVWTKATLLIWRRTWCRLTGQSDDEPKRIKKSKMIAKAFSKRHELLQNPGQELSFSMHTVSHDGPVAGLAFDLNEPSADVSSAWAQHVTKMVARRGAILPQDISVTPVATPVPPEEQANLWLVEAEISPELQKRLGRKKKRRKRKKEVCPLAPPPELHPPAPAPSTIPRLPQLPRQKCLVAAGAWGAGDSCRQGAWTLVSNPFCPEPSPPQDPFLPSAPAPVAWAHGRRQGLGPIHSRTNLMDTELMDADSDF
Sequence of 3',5'-cyclic-AMP phosphodiesterase 4D (Q08499 whole entry): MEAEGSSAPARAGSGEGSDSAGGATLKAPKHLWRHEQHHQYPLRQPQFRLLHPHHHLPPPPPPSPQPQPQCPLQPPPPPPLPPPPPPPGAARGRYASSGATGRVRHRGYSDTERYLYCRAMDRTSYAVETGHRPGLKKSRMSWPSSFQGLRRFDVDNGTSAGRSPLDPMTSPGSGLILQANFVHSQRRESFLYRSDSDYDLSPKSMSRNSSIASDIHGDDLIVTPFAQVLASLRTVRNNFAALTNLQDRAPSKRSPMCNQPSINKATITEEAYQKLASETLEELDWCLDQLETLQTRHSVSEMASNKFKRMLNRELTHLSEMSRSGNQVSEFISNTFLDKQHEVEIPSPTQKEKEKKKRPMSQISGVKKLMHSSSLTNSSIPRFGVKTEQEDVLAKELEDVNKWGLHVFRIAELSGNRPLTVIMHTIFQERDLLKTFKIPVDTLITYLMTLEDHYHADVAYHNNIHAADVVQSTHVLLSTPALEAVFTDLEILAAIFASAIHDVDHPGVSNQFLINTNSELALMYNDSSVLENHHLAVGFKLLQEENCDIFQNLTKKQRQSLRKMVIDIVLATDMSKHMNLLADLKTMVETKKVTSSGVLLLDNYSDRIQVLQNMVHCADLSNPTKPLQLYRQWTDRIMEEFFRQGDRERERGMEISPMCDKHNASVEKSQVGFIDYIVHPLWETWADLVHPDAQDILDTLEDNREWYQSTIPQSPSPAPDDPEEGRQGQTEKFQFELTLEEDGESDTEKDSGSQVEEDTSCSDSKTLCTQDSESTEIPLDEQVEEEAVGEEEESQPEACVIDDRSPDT

Row | SMILES | EC50 ([1]; read-out: EC50) [µM] | inhibition [2] [%] | CC50 at 48 h [3] [µM] | inhibition [4] [%] | other results
1 | C=C(C)Cn1c(SCC(=O)c2ccccc2)nc2sc3c(c2c1=O)CCCC3 | 5.7 | 64.8 | > 50 | 60.4 | IC50 [5]: 0.965 µM
2 | O=c1c2ccsc2nc(SCC(O)c2ccccc2)n1C1CC1 (configuration not stated) | – | 3.2 | > 50 | -4.8 | inhibition [6]: inactive; inhibition [7]: inactive; IC50 [5]: 6.07 µM
3 | O=C(CSc1nc2sc3c(c2c(=O)n1CC1CCC1)CCCC3)c1cccs1 | 1.99 | – | 45.6 | – | –
4 | C=C(C)Cn1c(SCC(=O)c2ccncc2)nc2sc3c(c2c1=O)CCCC3 | 19.8 | – | > 50 | – | –
5 | CC(O)(CSc1nc2sccc2c(=O)n1C1CC1)c1ccccc1 (configuration not stated) | 0.948 | – | > 50 | – | –
6 | C=C(C)Cn1c(SCC(=O)N2CCOCC2)nc2sc3c(c2c1=O)CCCC3 | > 20 | – | > 50 | – | –
7 | O=C(CSc1nc2ccccc2c(=O)n1C1CC1)c1cccs1 | 0.685 | 10.3 | > 50 | 9.9 | inhibition [6]: inactive; inhibition [7]: inactive
8 | CC1=C2C[C@H]3[C@@H](CC=C4CC(=O)CC[C@@]43C)[C@@H]2CCC12OC1C[C@H](C)CN(CCNC(=O)CCCCCNC(=O)CCc3ccccc3)C1[C@H]2C (single isomer, unassigned) | – | – | – | – | inhibition [8]: Active
9 | CCCn1c(SCC(=O)c2cccs2)nc2sc3c(c2c1=O)CCCC3 | 1.3 | 44.9 | > 50 | 39.9 | IC50 [5]: 0.486 µM
10 | O=C(CSc1nc2ccccc2c(=O)n1C1CC1)c1ccccc1 | 1.16 | – | > 50 | – | –
11 | C=C(C)Cn1c(SCC(=O)c2cccs2)nc2sc3ccccc3c2c1=O | > 20 | – | > 50 | – | –
12 | O=C(CNc1nc2sccc2c(=O)n1C1CC1)c1ccccc1 | > 20 | – | > 50 | – | –
13 | Cc1c(C(=O)Nc2ccc(N3C[C@@H](C)O[C@@H](C)C3)nc2)cccc1-c1ccc(OC(F)(F)F)cc1 [SONIDEGIB] | 0.0012 | – | > 50 | – | inhibition [9]: -0.2%; inhibition [10]: 5.8%
14 | C=C(C)Cn1c(SCC(=O)c2cccnc2)nc2sc3c(c2c1=O)CCCC3 | 11.1 | – | 35.4 | – | –
15 | O=C(CSc1nc2sc3c(c2c(=O)n1CC1CC1)CCCC3)c1cccs1 | 2.07 | – | > 50 | – | –
16 | C=C(C)Cn1c(SCC(=O)N2CCCCC2)nc2sc3c(c2c1=O)CCCC3 | 10.7 | – | 24.6 | – | –
17 | O=C(CSc1nc2sccc2c(=O)n1C1CC1)c1ccccc1 | 0.082 | 13.6 | > 50 | -0.3 | inhibition [7]: inactive; inhibition [11]: inactive

Row | SMILES | EC50 ([1]; read-out: EC50) [µM] | inhibition [2] [%] | CC50 at 48 h [3] [µM] | inhibition [4] [%] | other results
18 | C=CCn1c(SCC(=O)c2cccs2)nc2sc3c(c2c1=O)CCCC3 | 2.36 | – | > 50 | – | –
19 | O=C(CSc1nc2sc3c(c2c(=O)n1C1CC1)CCCC3)c1cccs1 | 1.89 | 26.8 | > 50 | 26.5 | –
20 | O=C(COc1nc2sccc2c(=O)n1C1CC1)c1ccccc1 | > 20 | – | > 50 | – | –
21 | C=C(C)Cn1c(SCC(=O)c2cccs2)nc2sc3c(c2c1=O)CCCC3 | 1.34 | 46.5 | > 50 | 32.2 | EC50 ([1]; read-out: pEC50 (converted)): < 1 µM; inhibition [6]: inactive; inhibition [7]: inactive; IC50 [5]: 0.38 µM
22 | C=C(C)Cn1c(SCC(=O)c2ccccn2)nc2sc3c(c2c1=O)CCCC3 | > 20 | – | > 50 | – | –
23 | C=C(C)Cn1c(SCC(=O)c2nccs2)nc2sc3c(c2c1=O)CCCC3 | > 20 | – | > 50 | – | –
24 | O=C(CSc1nc2sccc2c(=O)n1C1CC1)c1cccs1 | 0.933 | 5.5 | > 50 | -3.3 | inhibition [6]: inactive; inhibition [7]: inactive
25 | C=C(C)Cn1c(SCC(=O)c2cccs2)nc2sc3c(c2c1=O)CCSC3 | 4.57 | – | > 50 | – | –
26 | C=C(C)Cn1c(SCC(=O)c2cccs2)nc2sccc2c1=O | 0.931 | – | > 50 | – | –
27 | CN(C)c1ccccc1CN1CCCN(Cc2ccccc2N(C)C)C1c1ccncc1 | 9.27 | 43.8 | > 50 | 52.8 | EC50 [12]: 5 µM
28 | C=C(C)Cn1c(SCC(=O)N2CCCCC2C)nc2sc3c(c2c1=O)CCCC3 (configuration not stated) | 2.32 | 35 | 16.7 | 49.2 | –
29 | CS(=O)(=O)c1ccc(C(=O)Nc2ccc(Cl)c(-c3ccccn3)c2)c(Cl)c1 [VISMODEGIB] | 0.013 | – | > 50 | – | –
30 | C=C(C)Cn1c(SCC(=O)c2cccs2)nc2sc3c(c2c1=O)CCOC3 | > 20 | – | > 50 | – | –
31 | C=C(C)Cn1c(SCC(=O)c2cccs2)nc2sc3c(c2c1=O)CCNC3 | 6.4 | – | 20.1 | – | –
32 | O=C(CSc1nc2sc3c(c2c(=O)n1-c1ccccc1)CCCC3)c1cccs1 | 8.25 | – | > 50 | – | –
33 | C=C(C)Cn1c(SCC(=O)c2cccs2)nc2ccccc2c1=O | > 20 | – | > 50 | – | –
